The record followed here is patent US20240360154A1, “AROYL SUBSTITUTED TRICYCLIC COMPOUND, PREPARATION METHOD THEREFOR AND USE THEREOF” (GENFLEET THERAPEUTICS (SHANGHAI) INC., priority 2020, published 2024).

One test deals with BTK (Homo sapiens (Human), UniProt Q06187). Put plainly: BTK enzyme experiment (ADP-Glo kinase assay). It counts as biochemical. Conditions: 10 nM BTK, ATP 125 μM, Poly(Glu4, Tyr1), 90 minutes at 20° C.; read-out: BTK(WT) IC50. The procedure:
(§1) A 3-fold gradient concentration stock solution of 1000× compound was prepared using DMSO and diluted 100-fold to 10× compound stock solution using reaction buffer (50 mM HEPES, pH 7.5, 0.0015% Briji-35, 2 mM DTT, 10 mM MgCl2), and the 10× compound stock solution was transferred to a 384-well plate. Enzyme reactions were set up with BTK Kinase Enzyme System (Promega Catalog #V2941) or BTK (C481S) Kinase Enzyme System (Promega Catalog #VA7033). First, a 2× enzyme solution containing 10 nM BTK or 10 nM BTK C481S was prepared with reaction buffer and added to the plate, and incubated with the compound for 10 minutes. […] Finally, the kinase activity was detected according to the experimental steps provided by ADP-Glo™ kinase Assay Kit (Promega, #V9101), and finally the luminescence chemiluminescence value was read. DMSO was used as the maximum signal value, and adding no enzyme was used as the minimum signal value. The inhibition rate of the compound (%)=(maximum signal value−compound signal value)/(maximum signal value−minimum signal value)×100% was calculated. The compound gradient dilution concentration and the corresponding inhibition rate of the enzyme activity were fit by using XLFit four-parameter method, and IC50 value was calculated.

For another test, the target named is BTK (C481S) (Homo sapiens (Human), UniProt Q06187, C481S). Put plainly: BTK C481S enzyme experiment (ADP-Glo kinase assay). It is filed as biochemical. Conditions: 10 nM BTK C481S, ATP 125 μM, Poly(Glu4, Tyr1), 90 minutes at 20° C. On the procedure: as §1
Sequence of BTK (C481S) (Q06187 whole entry C481S): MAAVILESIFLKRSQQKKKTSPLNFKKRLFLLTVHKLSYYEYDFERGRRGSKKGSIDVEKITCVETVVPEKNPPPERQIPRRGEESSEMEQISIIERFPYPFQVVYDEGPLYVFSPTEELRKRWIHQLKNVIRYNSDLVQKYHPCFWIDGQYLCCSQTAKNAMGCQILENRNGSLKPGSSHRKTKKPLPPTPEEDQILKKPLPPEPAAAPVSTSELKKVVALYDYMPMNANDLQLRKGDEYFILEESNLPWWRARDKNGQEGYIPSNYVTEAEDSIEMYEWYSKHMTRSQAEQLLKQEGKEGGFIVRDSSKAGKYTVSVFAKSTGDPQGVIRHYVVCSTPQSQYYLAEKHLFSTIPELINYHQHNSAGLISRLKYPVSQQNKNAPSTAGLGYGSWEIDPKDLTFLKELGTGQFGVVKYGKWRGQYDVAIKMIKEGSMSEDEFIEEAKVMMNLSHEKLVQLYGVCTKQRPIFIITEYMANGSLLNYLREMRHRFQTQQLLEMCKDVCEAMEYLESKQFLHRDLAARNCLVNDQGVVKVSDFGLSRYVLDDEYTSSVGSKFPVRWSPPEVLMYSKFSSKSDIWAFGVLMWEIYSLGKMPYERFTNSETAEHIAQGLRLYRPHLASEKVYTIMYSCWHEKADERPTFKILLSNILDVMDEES
On the technique in general: ADP-Glo turns the ADP formed in a reaction into a luminescent signal.

The test system of a further test is TMD-8 cells. Put plainly: TMD-8 proliferation inhibition experiment. It is filed as cell-based. Conditions: human diffuse large B lymphoma cells, three days incubation. On the procedure:
TMD-8 cells are human diffuse large B lymphoma (Mingzhou Bio, MZ-0832), cultured in 10% FBS+1% PS 1640 medium; OCI-LY10 is human diffuse large B lymphoma (BeNa Culture Collection, BNCC337742), cultured in 10% FBS+1% PS IMDM. Day 1: Cells at logarithmic growth phase were taken, counted and inoculated 600 TMD-8 or 2000 OCI-LY10 cells in a 384-well cell culture plate and cultured overnight. Day 2: A 3-fold gradient concentration stock solution of 400× compound was prepared with DMSO, and diluted 40-fold to a 10× compound stock solution with culture medium. The 10× compound stock solution was added to each cell culture well with a final concentration of 1× compound stock solution and a DMSO content of 0.25%. DMSO was used as experimental control, and culture medium was used as blank control. The incubation was continued for three days after compound addition. On the fifth day, 25 μL of […] was added to each well, mixed well and incubated for 10 minutes, then the chemiluminescence value (RLU value) was read. The cell proliferation inhibition rate (%)=(RLUcontrol−RLUcompound)/(RLUcontrol−RLUblank)×100% was calculated. The compound gradient dilution concentration and the corresponding cell proliferation inhibition rate were fit by using XLFit four-parameter method, and IC50 value was calculated.

Molecules are shown by their SMILES.

As usually defined, the IC50 is the concentration that inhibits the measured activity by half.

Sequence of BTK (Q06187 whole entry): as the sequence (Q06187 whole entry C481S) above, with S481C counted along it

Consider `O=C(c1ccc(Oc2ccccc2)cc1Cl)c1c[nH]c2ncc3c(c12)N[C@@]1(CC[C@H](O)C1)C(=O)N3` (single isomer, unassigned) [Z24-1], for which the IC50 turned out to be 3.5 nM at BTK, 3.7 nM on BTK (C481S) and 55.4 nM in the test with TMD-8 cells.
Turning to `CCOC[C@]1(C)Nc2c(cnc3[nH]cc(C(=O)c4ccc(Oc5cc(C)ccn5)cc4Cl)c23)NC1=O` [Z167, (S)-9-(2-chloro-4-((4-methylpyridin-2-yl)oxy)benzoyl)-2-(ethoxymethyl)-2-methyl-1,2,4,7-tetrahydro-3H-pyrrolo[3′,2′:5,6]pyrido[3,4-b]pyrazin-3-one], the IC50 at BTK was 11.2 nM; against BTK (C481S) it was 12.1 nM; in the test with TMD-8 cells (Homo sapiens, TMD8, 72 h), 372 nM.
With `O=C(c1ccc(Oc2ccccc2)cc1Cl)c1c[nH]c2ncc3c(c12)N[C@]1(CCOC1)C(=O)N3` (single isomer, unassigned) [Z1-2], the half-maximal inhibitory concentration (IC50) on BTK is 64.7 nM; on BTK (C481S), 27.2 nM; in the test with TMD-8 cells, 232 nM.
With `COC[C@]1(C)Nc2c(cnc3[nH]cc(C(=O)c4ccc(Oc5cc(Cl)cc(C)n5)cc4Cl)c23)NC1=O` [Z134, (S)-9-(2-chloro-4-((4-chloro-6-methylpyridin-2-yl)oxy)benzoyl)-2-(methoxymethyl)-2-methyl-1,2,4,7-tetrahydro-3H-pyrrolo[3′,2′:5,6]pyrido[3,4-b]pyrazin-3-one], the IC50 on BTK came to 14.9 nM; against BTK (C481S), 11.4 nM; in the test with TMD-8 cells (Homo sapiens, TMD8, 72 h), 256 nM.
Consider `O=C(c1ccc(Oc2ccccc2)cc1Cl)c1c[nH]c2ncc3c(c12)NC1(CCOC1)C(=O)N3` (stereo not shown) [Z1, 9′-(2-chloro-4-phenoxybenzoyl)-4,4′,5,7′-tetrahydro-2H-spiro[furan-3,2′-pyrrolo[3′,2′:5,6]pyrido[3,4-b]pyrazin]-3′(1′H)-one], for which the IC50 at BTK amounted to 41.2 nM; against BTK (C481S), 18.9 nM; in the test on TMD-8 cells (Homo sapiens, TMD8, 72 h), 156 nM.
With `C[C@]1(CO)Nc2c(cnc3[nH]cc(C(=O)c4ccc(Oc5ccccc5)cc4Cl)c23)NC1=O` (single isomer, unassigned) [Z9-1], the half-maximal inhibitory concentration (IC50) on BTK stood at 20 nM; at BTK (C481S), 20 nM; in the test with TMD-8 cells, 389 nM.
In the case of `COC[C@]1(C)Nc2c(cnc3[nH]cc(C(=O)c4ccc(Oc5cccc(Cl)c5)cc4Cl)c23)NC1=O` [Z165, (S)-9-(2-chloro-4-(3-chlorophenoxy)benzoyl)-2-(methoxymethyl)-2-methyl-1,2,4,7-tetrahydro-3H-pyrrolo[3′,2′:5,6]pyrido[3,4-b]pyrazin-3-one], the IC50 at BTK was 54.2 nM; against BTK (C481S) it was 73.9 nM; with TMD-8 cells (Homo sapiens, TMD8, 72 h) it was 366 nM.
Taken in the same sequence, the figures for `COC[C@]1(C)Nc2c(cnc3[nH]cc(C(=O)c4ccc(Oc5cccc(F)c5OC)cc4Cl)c23)NC1=O` [Z173, (S)-9-(2-chloro-4-(3-fluoro-2-methoxyphenoxy)benzoyl)-2-(methoxymethyl)-2-methyl-1,2,4,7-tetrahydro-3H-pyrrolo[3′,2′:5,6]pyrido[3,4-b]pyrazin-3-one] were 26.5 nM, 18.4 nM and 366 nM.
For `CN1C(=O)C(C)(CO)Nc2c1cnc1[nH]cc(C(=O)c3ccc(Oc4ccccc4)cc3Cl)c21` (stereo not shown) [Z51, 9-(2-chloro-4-phenoxybenzoyl)-2-(hydroxymethyl)-2,4-dimethyl-1,2,4,7-tetrahydro-3H-pyrrolo[3′,2′:5,6]pyrido[3,4-b]pyrazin-3-one] the same measures were 36.5 nM, 39.6 nM and 259 nM.
As to `O=C(c1ccc(Oc2ccccc2)cc1Cl)c1c[nH]c2ncc3c(c12)N[C@@]1(CCOC1)C(=O)N3` (single isomer, unassigned) [Z1-1], the IC50 came to 67.1 nM on BTK, 23.6 nM against BTK (C481S) and 183 nM in the test with TMD-8 cells.
Consider `[2H]C([2H])([2H])OC[C@]1(C)Nc2c(cnc3[nH]cc(C(=O)c4ccc(Oc5nccc(C)c5F)cc4Cl)c23)NC1=O` [Z146, (S)-9-(2-chloro-4-((3-fluoro-4-methylpyridin-2-yl)oxy)benzoyl)-2-((methoxy-d3)methyl)-2-methyl-1,2,4,7-tetrahydro-3H-pyrrolo[3′,2′:5,6]pyrido[3,4-b]pyrazin-3-one], for which the IC50 at BTK came to 10 nM; against BTK (C481S), 16.3 nM; with TMD-8 cells (Homo sapiens, TMD8, 72 h), 195 nM.
With `CN1C(=O)[C@](C)(CO)Nc2c1cnc1[nH]cc(C(=O)c3ccc(Oc4ccccc4)cc3Cl)c21` (single isomer, unassigned) [Z51-1], the IC50 on BTK came to 52.3 nM; against BTK (C481S) it was 34.3 nM; with TMD-8 cells, 280 nM.
In the case of `[2H]C([2H])([2H])Oc1cccc(F)c1Oc1ccc(C(=O)c2c[nH]c3ncc4c(c23)N[C@@](C)(COC)C(=O)N4)c(Cl)c1` [Z187], half-maximal inhibition in the test on TMD-8 cells (Homo sapiens, TMD8, 72 h) (IC50) was put at 41.3 nM.
As to `COC[C@]1(C)Nc2c(cnc3[nH]cc(C(=O)c4sccc4Cl)c23)NC1=O` [Z103, (S)-9-(3-chlorothiophene-2-carbonyl)-2-(methoxymethyl)-2-methyl-1,2,4,7-tetrahydro-3H-pyrrolo[3′,2′:5,6]pyrido[3,4-b]pyrazin-3-one], the 50% inhibitory concentration (IC50) on BTK was determined as 20.1 nM; against BTK (C481S) it was 9.8 nM.
For `COC[C@]1(C)Nc2c(cnc3[nH]cc(C(=O)c4c(F)cccc4Cl)c23)NC1=O` [Z196, (S)-9-(2-chloro-6-fluorobenzoyl)-2-(methoxymethyl)-2-methyl-1,2,4,7-tetrahydro-3H-pyrrolo[3′,2′:5,6]pyrido[3,4-b]pyrazin-3-one] the same measures were 26.4 nM and 25.8 nM.
Taken in the same sequence, the figures for `N#C[C@H]1CC[C@@]2(C1)Nc1c(cnc3[nH]cc(C(=O)c4ccc(Oc5ccccc5)cc4Cl)c13)NC2=O` (single isomer, unassigned) [Z26-4] were 35.9 nM and 28.5 nM.
Taken in the same sequence, the figures for `COC[C@]1(C)Nc2c(cnc3[nH]cc(C(=O)c4ccc(Oc5ccccc5)cc4Cl)c23)N=C1SC` [Z201, (S)-(2-chloro-4-phenoxyphenyl)(2-(methoxymethyl)-2-methyl-3-(methylthio)-2,7-dihydro-1H-pyrrolo[3′,2′:5,6]pyrido[3,4-b]pyrazin-9-yl)methanone] were 122 nM and 215 nM.
With `COC[C@]1(C)Nc2c(cnc3[nH]cc(C(=O)c4ccccc4Cl)c23)NC1=O` [Z79, (S)-9-(2-chlorobenzoyl)-2-(methoxymethyl)-2-methyl-1,2,4,7-tetrahydro-3H-pyrrolo[3′,2′:5,6]pyrido[3,4-b]pyrazin-3-one], the IC50 was determined as 5.8 nM on BTK and 3.2 nM against BTK (C481S).
Take `COC[C@]1(C)Nc2c(cnc3[nH]cc(C(=O)c4ccc(Oc5cc(C)cc(C)n5)cc4Cl)c23)NC1=O` [Z127-1, (S)-9-(2-chloro-4-((4,6-dimethylpyridin-2-yl)oxy)benzoyl)-2-(methoxymethyl)-2-methyl-1,2,4,7-tetrahydro-3H-pyrrolo[3′,2′:5,6]pyrido[3,4-b]pyrazin-3-one]: the IC50 on BTK came to 29.1 nM; against BTK (C481S), 31.5 nM.
Taken in the same sequence, the figures for `Cc1ccnc(Oc2ccc(C(=O)c3c[nH]c4ncc5c(c34)NC(C)(CO)C(=O)N5)c(Cl)c2)c1` (stereo not shown) [Z56, 9-(2-chloro-4-((4-methylpyridin-2-yl)oxy)benzoyl)-2-(hydroxymethyl)-2-methyl-1,2,4,7-tetrahydro-3H-pyrrolo[3′,2′:5,6]pyrido[3,4-b]pyrazin-3-one] were 22.9 nM and 18.4 nM.
Taken in the same sequence, the figures for `CC1(CO)Nc2c(cnc3[nH]cc(C(=O)c4ccc(Oc5ncccc5C(F)(F)F)cc4Cl)c23)NC1=O` (stereo not shown) [Z55, 9-(2-chloro-4-((3-(trifluoromethyl)pyridin-2-yl)oxy)benzoyl)-2-(hydroxymethyl)-2-methyl-4,7-dihydro-1H-pyrrolo[3′,2′:5,6]pyrido[3,4-b]pyrazin-3(2H)-one] were 142 nM and 120 nM.
Consider `CN1CCCC2(C1)Nc1c(cnc3[nH]cc(C(=O)c4ccc(Oc5ccccc5)cc4Cl)c13)NC2=O` (stereo not shown) [Z19, 9′-(2-chloro-4-phenoxybenzoyl)-1-methyl-4′,7′-dihydrospiro[piperidine-3,2′-pyrrolo[3′,2′:5,6]pyrido[3,4-b]pyrazin]-3′(1′H)-one], for which the 50% inhibitory concentration (IC50) at BTK was found to be 23.1 nM; on BTK (C481S), 12.6 nM.
